The results in this text go back to patent US20070238762A1, “Use of Antagonists of Hepatic Sympathetic Nerve Activity” (DiaMedica Inc., priority 2003, published 2007).

The subject of assay [1] is Sprague Dawley rats. The experiment in a line: Rapid insulin sensitivity test (RIST) following 24 hour fast. The settings on record: male rats fasted 24 hours; constant i.v. infusion of phentolamine; FIG. 3. Format: in vivo, rat.
Text: HISS-dependent and HISS-independent insulin action can be most readily quantitated using the rapid insulin sensitivity test (RIST) which is a transient euglycemic clamp in response to a bolus administration of insulin. […] The RIST method uses variable glucose infusion rates to maintain the blood glucose level constant. The amount of glucose required to be administered in order to maintain the glycemic baseline is the index of insulin sensitivity and is referred to as the RIST index. The RIST index produced by this procedure consists of a HISS-dependent component and a HISS-independent component that can be readily differentiated by testing in the control fed state and then repeating the test after blockade of HISS release by any of a number of means including surgical denervation of the liver, blockade of hepatic muscarinic receptors, blockade of hepatic nitric oxide production, or blockade of hepatic cyclooxygenase. […] Blockade of HISS release results in HDIR. […] In order to determine whether HISS played a role in controlling glycogenolysis in response to acute trauma, fully anesthetized, fed, male, Sprague Dawley rats were prepared surgically according to the standard animal preparation used to conduct a rapid insulin sensitivity test (RIST) (Lautt et al., 1998). […] Blood was then withdrawn at a rate of 0.5 ml/min to decrease arterial pressure to 50 mm Hg. […]
The test system of assay [2] is Sprague Dawley rats. The experiment in a line: Rapid insulin sensitivity test (RIST) following 18 hour fast. Format: in vivo, rat. The settings on record: male rats fasted 18 hours; bolus 600 μg/kg ipv phentolamine; FIG. 4. The method, then: Blockade of HISS release results in HDIR.
Male, Sprague Dawley rats were fed normal rat pellets and then fasted for a 18-hour period (with free access to water) prior to administration of pentobarbital sodium anesthesia and standard RIST methodology surgical preparation as described in Example One.
Following fasting, the animals were administered a bolus dose of 600 μg/kg ipv of phentolamine or a bolus dose of 600 μg/kg ipv of phentolamine and 5 μg/kg ipv of arecoline.

Consider `Cc1ccc(N(CC2=NCCN2)c2cccc(O)c2)cc1` [phentolamine], for which the entries for the “insulin action (RIST)” value in assay [1] and in assay [2] were “significantly restored toward normal levels” and “restoration of insulin action”, respectively.
